Results taken from PMC6219668 (Oncotarget, 2018).
pIC50: −log10 of the molar value. Where two headings read alike, the source gives them in different places.

Tested on: panel of nearly 500 cancer cell lines
Assay: Cancer Cell Line Encyclopedia profiling, 3-day CellTiter-Glo
Format: cell-based
Conditions: read-out: IC50

CC(=O)c1c(C)c2cnc(Nc3ccc(N4CCNCC4)cn3)nc2n(C2CCCC2)c1=O [Palbociblib]
pIC50 (22rv1 (prostate)): < 5.10 | pIC50 (639v (urinary_tract)): < 5.10 | pIC50 (769p (kidney)): 5.17 | pIC50 (5637 (urinary_tract)): < 5.10 | pIC50 (8305c (thyroid)): 5.27 | pIC50 (8505c (thyroid)): < 5.10 | pIC50 (a172 (central_nervous_system)): < 5.10 | pIC50 (a204 (soft_tissue)): < 5.10 | pIC50 (a253 (salivary_gland)): < 5.10 | pIC50 (a375 (skin)): < 5.10 | pIC50 (a549 (lung)): < 5.10 | pIC50 (a673 (bone)): < 5.10 | pIC50 (a2058 (skin)): < 5.10 | pIC50 (a2780 (ovary)): < 5.10 | pIC50 (amo1 (haematopoietic_and_lymphoid_tissue)): < 5.10 | pIC50 (an3ca (endometrium)): 5.15 | pIC50 (aspc1 (pancreas)): < 5.10 | pIC50 (au565 (breast)): 5.12 | pIC50 (az521 (stomach)): < 5.10 | pIC50 (bdcm (haematopoietic_and_lymphoid_tissue)): 5.72 | pIC50 (bftc909 (kidney)): < 5.10 | pIC50 (bgc823 (stomach)): < 5.10 | pIC50 (bl41 (haematopoietic_and_lymphoid_tissue)): < 5.10 | pIC50 (bl70 (haematopoietic_and_lymphoid_tissue)): 5.34 | pIC50 (bt20 (breast)): < 5.10 | pIC50 (bt474 (breast)): < 5.10 | pIC50 (bt549 (breast)): < 5.10 | pIC50 (c2bbe1 (large_intestine)): < 5.10 | pIC50 (c3a (liver)): < 5.10 | pIC50 (c32 (skin)): < 5.10 | pIC50 (caki2 (kidney)): < 5.10 | pIC50 (cal27 (upper_aerodigestive_tract)): < 5.10 | pIC50 (cal78 (bone)): < 5.10 | pIC50 (cal851 (breast)): < 5.10 | pIC50 (calu1 (lung)): < 5.10 | pIC50 (calu3 (lung)): < 5.10 | pIC50 (cama1 (breast)): < 5.10 | pIC50 (capan2 (pancreas)): < 5.10 | pIC50 (cas1 (central_nervous_system)): < 5.10 | pIC50 (cell line tyknu, ovary): < 5.10 | pIC50 (cell line u87mg, central_nervous_system): < 5.10 | pIC50 (cell line u118mg, central_nervous_system): < 5.10 | pIC50 (cell line u2os, bone): < 5.10 | pIC50 (cell line u937, haematopoietic_and_lymphoid_tissue): < 5.10 | pIC50 (cell line uacc812, breast): < 5.10 | pIC50 (cell line umuc3, urinary_tract): < 5.10 | pIC50 (cell line vmrclcd, lung): 5.73 | pIC50 (cell line vmrcrcw, kidney): < 5.10 | pIC50 (cell line vmrcrcz, kidney): < 5.10 | pIC50 (cell line ykg1, central_nervous_system): 5.13 | pIC50 (cell line zr7530, breast): < 5.10 | pIC50 (chl1 (skin)): < 5.10 | pIC50 (ci1 (haematopoietic_and_lymphoid_tissue)): 5.19 | pIC50 (cmk (haematopoietic_and_lymphoid_tissue)): 5.26 | pIC50 (colo201 (large_intestine)): 5.83 | pIC50 (colo205 (large_intestine)): 5.14 | pIC50 (colo320 (large_intestine)): 5.17 | pIC50 (colo679 (skin)): < 5.10 | pIC50 (corl23 (lung)): < 5.10 | pIC50 (corl23cpr (lung)): < 5.10 | pIC50 (cov318 (ovary)): < 5.10 | pIC50 (cov504 (ovary)): < 5.10 | pIC50 (daoy (central_nervous_system)): < 5.10 | pIC50 (dbtrg05mg (central_nervous_system)): < 5.10 | pIC50 (detroit562 (upper_aerodigestive_tract)): 5.50 | pIC50 (dkmg (central_nervous_system)): < 5.10 | pIC50 (dms114 (lung)): < 5.10 | pIC50 (dov13 (ovary)): < 5.10 | pIC50 (du145 (prostate)): < 5.10 | pIC50 (eb1 (haematopoietic_and_lymphoid_tissue)): < 5.10 | pIC50 (eb2 (haematopoietic_and_lymphoid_tissue)): < 5.10 | pIC50 (ebc1 (lung)): < 5.10 | pIC50 (efe184 (endometrium)): < 5.10 | pIC50 (efm19 (breast)): < 5.10 | pIC50 (efo21 (ovary)): < 5.10 | pIC50 (efo27 (ovary)): < 5.10 | pIC50 (en (endometrium)): < 5.10 | pIC50 (es2 (ovary)): < 5.10 | pIC50 (fadu (upper_aerodigestive_tract)): < 5.10 | pIC50 (fuov1 (ovary)): < 5.10 | pIC50 (g361 (skin)): < 5.10 | pIC50 (g401 (soft_tissue)): < 5.10 | pIC50 (gb1 (central_nervous_system)): < 5.10 | pIC50 (gciy (stomach)): < 5.10 | pIC50 (gct (soft_tissue)): 5.39 | pIC50 (glc82 (lung)): < 5.10 | pIC50 (gms10 (central_nervous_system)): < 5.10 | pIC50 (h4 (central_nervous_system)): < 5.10 | pIC50 (hcc15 (lung)): < 5.10 | pIC50 (hcc56 (large_intestine)): < 5.10 | pIC50 (hcc70 (breast)): < 5.10 | pIC50 (hcc78 (lung)): < 5.10 | pIC50 (hcc1187 (breast)): < 5.10 | pIC50 (hcc1569 (breast)): < 5.10 | pIC50 (hcc1806 (breast)): < 5.10 | pIC50 (hcc1954 (breast)): 5.60 | pIC50 (hcc2935 (lung)): < 5.10 | pIC50 (hcc4006 (lung)): < 5.10 | pIC50 (hct15 (large_intestine)): < 5.10 | pIC50 (hct116 (large_intestine)): < 5.10 | pIC50 (hec1a (endometrium)): < 5.10 | pIC50 (hec1b (endometrium)): 5.30 | pIC50 (hec59 (endometrium)): < 5.10 | pIC50 (hec151 (endometrium)): < 5.10 | pIC50 (hec251 (endometrium)): < 5.10 | pIC50 (hec265 (endometrium)): < 5.10 | pIC50 (hel9217 (haematopoietic_and_lymphoid_tissue)): < 5.10 | pIC50 (hep3b217 (liver)): < 5.10 | pIC50 (hepg2 (liver)): < 5.10 | pIC50 (heya8 (ovary)): < 5.10 | pIC50 (hgc27 (stomach)): 5.76 | pIC50 (hh (haematopoietic_and_lymphoid_tissue)): < 5.10 | pIC50 (hle (liver)): < 5.10 | pIC50 (hlf (liver)): < 5.10 | pIC50 (hmc18 (breast)): < 5.10 | pIC50 (hmcb (skin)): < 5.10 | pIC50 (hos (bone)): < 5.10 | pIC50 (hpac (pancreas)): < 5.10 | pIC50 (hs229t (lung)): < 5.10 | pIC50 (hs294t (skin)): < 5.10 | pIC50 (hs578t (breast)): < 5.10 | pIC50 (hs683 (central_nervous_system)): < 5.10 | pIC50 (hs695t (skin)): < 5.10 | pIC50 (hs739t (breast)): < 5.10 | pIC50 (hs746t (stomach)): < 5.10 | pIC50 (hs766t (pancreas)): < 5.10 | pIC50 (hs840t (upper_aerodigestive_tract)): < 5.10 | pIC50 (hs852t (skin)): < 5.10 | pIC50 (hs895t (skin)): 6.35 | pIC50 (hs936t (skin)): < 5.10 | pIC50 (hs939t (skin)): < 5.10 | pIC50 (hs944t (skin)): < 5.10 | pIC50 (hsc2 (upper_aerodigestive_tract)): < 5.10 | pIC50 (ht29 (large_intestine)): < 5.10 | pIC50 (ht144 (skin)): < 5.10 | pIC50 (ht1080 (soft_tissue)): < 5.10 | pIC50 (ht1197 (urinary_tract)): < 5.10 | pIC50 (ht1376 (urinary_tract)): < 5.10 | pIC50 (ht (haematopoietic_and_lymphoid_tissue)): < 5.10 | pIC50 (hucct1 (biliary_tract)): < 5.10 | pIC50 (huh1 (liver)): < 5.10 | pIC50 (hupt3 (pancreas)): < 5.10 | pIC50 (hupt4 (pancreas)): < 5.10 | pIC50 (hut78 (haematopoietic_and_lymphoid_tissue)): < 5.10 | pIC50 (ialm (lung)): < 5.10 | pIC50 (igr37 (skin)): < 5.10 | pIC50 (igr39 (skin)): < 5.10 | pIC50 (igrov1 (ovary)): < 5.10 | pIC50 (imr32 (autonomic_ganglia)): < 5.10 | pIC50 (ipc298 (skin)): < 5.10 | pIC50 (istmes1 (pleura)): < 5.10 | pIC50 (istmes2 (pleura)): 6.37 | pIC50 (j82 (urinary_tract)): < 5.10 | pIC50 (jhh2 (liver)): < 5.10 | pIC50 (jhh4 (liver)): < 5.10 | pIC50 (jhh6 (liver)): < 5.10 | pIC50 (jhos2 (ovary)): < 5.10 | pIC50 (jhos4 (ovary)): < 5.10 | pIC50 (jm1 (haematopoietic_and_lymphoid_tissue)): < 5.10 | pIC50 (jmsu1 (urinary_tract)): < 5.10 | pIC50 (k029ax (skin)): < 5.10 | pIC50 (kals1 (central_nervous_system)): < 5.10 | pIC50 (karpas299 (haematopoietic_and_lymphoid_tissue)): 5.13 | pIC50 (karpas422 (haematopoietic_and_lymphoid_tissue)): < 5.10 | pIC50 (ke39 (stomach)): 5.45 | pIC50 (ke97 (haematopoietic_and_lymphoid_tissue)): 5.59 | pIC50 (kg1 (haematopoietic_and_lymphoid_tissue)): < 5.10 | pIC50 (kle (endometrium)): < 5.10 | pIC50 (kmbc2 (urinary_tract)): < 5.10 | pIC50 (kmrc1 (kidney)): < 5.10 | pIC50 (kms12bm (haematopoietic_and_lymphoid_tissue)): < 5.10 | pIC50 (kms26 (haematopoietic_and_lymphoid_tissue)): 5.78 | pIC50 (kns42 (central_nervous_system)): < 5.10 | pIC50 (kns60 (central_nervous_system)): < 5.10 | pIC50 (kp1n (pancreas)): < 5.10 | pIC50 (kp1nl (pancreas)): < 5.10 | pIC50 (kp2 (pancreas)): < 5.10 | pIC50 (kp3 (pancreas)): < 5.10 | pIC50 (kp4 (pancreas)): < 5.10 | pIC50 (ku812 (haematopoietic_and_lymphoid_tissue)): 5.20 | pIC50 (kyse30 (oesophagus)): < 5.10 | pIC50 (kyse410 (oesophagus)): < 5.10 | pIC50 (kyse520 (oesophagus)): < 5.10 | pIC50 (l33 (pancreas)): < 5.10 | pIC50 (lc1sqsf (lung)): < 5.10 | pIC50 (lclc103h (lung)): < 5.10 | pIC50 (ln18 (central_nervous_system)): < 5.10 | pIC50 (ln229 (central_nervous_system)): < 5.10 | pIC50 (lounh91 (lung)): < 5.10
